{
  "source": "patent US5977075A",
  "about": "“N-aroylamino acid amides as endothelin inhibitors” (Novartis AG, priority 1997, dated 1999)",
  "key": {"[1]": {"biological_target": "T1, human ETA (Homo sapiens, UniProt P25101)", "T1 construct": "expressed in transfected cells; host or cells: CHO (Chinese hamster ovary) cells, membrane preparation", "T1 sequence (P25101 21-427)": "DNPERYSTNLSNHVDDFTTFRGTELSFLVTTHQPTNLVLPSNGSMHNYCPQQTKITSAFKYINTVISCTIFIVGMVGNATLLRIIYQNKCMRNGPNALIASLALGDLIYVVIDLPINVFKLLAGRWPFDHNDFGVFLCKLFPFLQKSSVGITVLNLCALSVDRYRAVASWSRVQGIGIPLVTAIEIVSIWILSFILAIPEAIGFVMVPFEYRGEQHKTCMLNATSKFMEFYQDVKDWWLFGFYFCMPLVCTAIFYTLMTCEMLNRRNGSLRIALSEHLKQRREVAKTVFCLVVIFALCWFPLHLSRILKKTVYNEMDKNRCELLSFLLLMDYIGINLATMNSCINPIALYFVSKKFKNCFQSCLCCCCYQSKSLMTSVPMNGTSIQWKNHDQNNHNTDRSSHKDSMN", "experiment": "Competition binding of [125I] ET-1 to CHO-ETA membranes", "settings": "[125I] ET-1, 2 hours at 37° C.", "procedure": "(§1) 1. Binding Studies--ETA and ETB ;\n(§2) Chinese hamster ovary cells expressing human ETA (CHO-ETA) or ETB (CHO-ETB) receptors are cultured in F12 medium (cibcoBRL, Grand Island, N.Y.) containing 10% fetal bovine serum and 1× antibiotic-antimycotic (GibcoBRL). Cells are harvested, then centrifuged, and finally homogenized in buffer containing 1 mM EDTA and […] Tris, pH 8.0. The cell debris is removed by brief centrifugation, and then the supernatant centrifuged again at 50,000×g for 10 minutes. The resulting pellet is resuspended in Hanks' balanced salt solution at a protein concentration of […] and stored in aliquots at -80° C. Competition binding is carried out by in incubating 0.2-1.0 mg of membrane protein from CHO-ETA or CHO-ETB cells with 12,000 cpm [^125 I] ET-1 (New England Nuclear, Boston, Mass.) with or without the competing ligand for 2 hours at 37° C. in a buffer containing 0.2 mg/ml bovine serum albumin, 0.002% Triton X-100, 0.02% NaN3, and […] Tris, pH 7.0. The reaction is terminated by filtration through a cell harvester (Brandel, Gaitherburg, Md.) using GF/C filters. Triplicate samples are carried out in each experiment, and if appropriate, the full dose-response curve for each competing ligand is performed at least three times. […]"}, "[2]": {"biological_target": "T2, human ETB (Homo sapiens, UniProt P24530)", "T2 construct": "expressed in transfected cells; host or cells: CHO (Chinese hamster ovary) cells, membrane preparation", "T2 sequence (P24530 27-442)": "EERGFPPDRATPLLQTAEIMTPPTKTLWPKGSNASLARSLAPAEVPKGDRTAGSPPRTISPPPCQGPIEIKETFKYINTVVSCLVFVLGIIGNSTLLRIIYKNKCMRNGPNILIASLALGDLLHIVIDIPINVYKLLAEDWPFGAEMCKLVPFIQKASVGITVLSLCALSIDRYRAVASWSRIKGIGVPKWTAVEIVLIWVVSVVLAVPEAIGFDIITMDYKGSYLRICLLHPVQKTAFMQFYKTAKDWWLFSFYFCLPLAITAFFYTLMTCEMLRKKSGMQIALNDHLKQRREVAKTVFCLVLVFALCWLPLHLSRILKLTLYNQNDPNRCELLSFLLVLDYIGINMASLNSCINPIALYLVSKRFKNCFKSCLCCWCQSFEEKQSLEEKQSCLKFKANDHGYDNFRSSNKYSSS", "experiment": "Competition binding of [125I] ET-1 to CHO-ETB membranes", "settings": "[125I] ET-1, 2 hours at 37° C.", "procedure": "as §1, §2"}, "[3]": {"biological_target": "T3, ETB (Canis lupus familiaris, UniProt P56497)", "T3 construct": "from tissue; host or cells: saphenous vein segments from mongrel dogs", "T3 sequence (P56497 27-442)": "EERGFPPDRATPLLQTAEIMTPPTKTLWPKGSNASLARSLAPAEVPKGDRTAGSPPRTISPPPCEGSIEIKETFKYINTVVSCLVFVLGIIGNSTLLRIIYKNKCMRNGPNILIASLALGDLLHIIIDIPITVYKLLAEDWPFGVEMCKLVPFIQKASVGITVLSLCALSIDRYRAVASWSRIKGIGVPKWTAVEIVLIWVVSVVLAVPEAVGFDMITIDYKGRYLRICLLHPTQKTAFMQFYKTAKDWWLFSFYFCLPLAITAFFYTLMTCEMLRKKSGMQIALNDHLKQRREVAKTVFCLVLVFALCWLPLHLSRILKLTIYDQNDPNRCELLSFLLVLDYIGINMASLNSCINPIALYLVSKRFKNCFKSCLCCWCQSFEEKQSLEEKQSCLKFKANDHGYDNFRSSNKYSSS", "experiment": "Isolated tissue study, isometric tension, dog saphenous veins", "design": "species or system mongrel dogs", "settings": "antagonist added 30 minutes prior to ET-1 or STX6c", "procedure": "(§3) 2. Isolated Tissue Studies\n(§4) Studies measuring isometric tension are carried out according to the procedure of Shetty et al. (Biochem. Biophys. Res. Comm. 1993; 191:459-464). Saphenous veins (for antagonism of ETB) are obtained from mongrel dogs which are anesthetized with pentobarbital. Thoracic aortas are obtained from Sprague-Dawley male rats (for antagonism of ETA). Coronary arteries are obtained from porcine hearts. Tissue segments (4-5 mm) from each vascular preparation are equilibrated for 90 minutes during which time the tissues are adjusted to a preload tension of 2 gm, except for the porcine coronary which is adjusted to 4 gm preload. Concentration-response curves are generated by the cumulative addition of the peptides. Antagonists are added 30 minutes prior to the addition of ET-1 or STX6c. Contractions are expressed as a percentage of the response to […] KCl. Relaxation is quantitated by expressing the tension after relaxation as a percent of the tension induced by 1 mM phenylephrine."}, "[4]": {"biological_target": "T4, ETA (Rattus norvegicus, UniProt P26684)", "T4 construct": "from tissue; host or cells: thoracic aorta segments from Sprague-Dawley male rats", "T4 sequence (P26684 21-426)": "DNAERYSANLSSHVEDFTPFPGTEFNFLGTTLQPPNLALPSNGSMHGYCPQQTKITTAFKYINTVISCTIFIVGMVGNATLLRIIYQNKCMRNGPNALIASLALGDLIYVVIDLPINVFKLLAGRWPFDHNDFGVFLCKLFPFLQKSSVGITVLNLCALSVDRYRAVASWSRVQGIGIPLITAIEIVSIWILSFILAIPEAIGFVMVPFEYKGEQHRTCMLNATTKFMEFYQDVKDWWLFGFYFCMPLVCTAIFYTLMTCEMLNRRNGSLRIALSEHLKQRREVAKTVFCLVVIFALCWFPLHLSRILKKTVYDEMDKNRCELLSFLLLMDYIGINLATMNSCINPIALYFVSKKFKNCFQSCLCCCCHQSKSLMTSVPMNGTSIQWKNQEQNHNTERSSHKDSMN", "experiment": "Isolated tissue study, isometric tension, thoracic aorta", "design": "species or system Sprague-Dawley male rats", "settings": "antagonist added 30 minutes prior to ET-1 or STX6c", "procedure": "as §3, §4"}},
  "data": [
    {"smiles": "CCCCS(=O)(=O)NC(=O)C1(NC(=O)[C@@H](Cc2ccc(-n3cccc3)cc2)N(C)C(=O)c2cc(C)cc(C)c2)CC1", "note": "[example 1, R-N-[N-3,5-dimethylbenzoyl-N-methyl-3-[4-(1-pyrrolyl)phenyl]alanyl]-1-aminocyclo propane-1-N-(n-butanesulfonyl)carboxamide]", "values": [
      {"measurement": "IC50", "setting": "[1]", "result": "< 1", "unit": "nM"},
      {"measurement": "IC50", "setting": "[2]", "result": "< 1", "unit": "nM"},
      {"measurement": "ET-induced contractile response in dog saphenous veins", "setting": "[3]", "result": "inhibit ET-induced contractile response"},
      {"measurement": "ET-induced contractile response in thoracic aorta", "setting": "[4]", "result": "inhibit ET-induced contractile response"}
    ]}
  ]
}
